Source: patent US4803266A, “3-Oxoalkylidene-2-azetidinone derivatives” (Taisho Pharmaceutical Co., Ltd., priority 1986, dated 1989)

What was measured:
[1] = tested on: blood platelet aggregation; assay: Blood platelet aggregation inhibition in vitro in rabbit PRP, ADP induced; format: cell-based, male, New Zealand strain house rabbit; conditions: Oryctolagus cuniculus, ADP final concentration 5 μM, 37° C., 3 minutes preincubation, 50% inhibition of maximum aggregation rate
Protocol: (§1) Citrated blood (one volume of 3.2% sodium citrate; 9 volumes of blood) was collected from carotid artery of male, New Zealand strain house rabbit, centrifuged at 150 g for 15 minutes to give platelet rich plasma (PRP) as a supernatant, and the remaining blood was centrifuged at 1500 g for 10 minutes to give platelet poor plasma (PPP) as a supernatant. The platelet count of PRP was adjusted to 50-60×10^4 /μl by dilution of PPP. Blood platelet aggregation was carried out according to the method of Born [Born, G. V. R., Nature, 194, 927 (1962)]. Namely, 25 μl of the test drug, (all the test drugs were dissolved in dimethyl sulfoxide and adjusted to the desired concentration with physiological saline solution), was added to 250 μl of PRP, and the mixture was incubated at 37° C. for 3 minutes. 25 μl of the aggregation inducing substance [adenosine diphosphate (ADP); final concentration 5 μM or collagen: final concentration 5 μg/ml] was added, the mixture was measured for 5 minutes by blood platelet aggregation ability measurement apparatus (Aggricoda TM-PA-3210, Kyoto Dai-ichi Kagaku) to obtain the maximum aggregation rate, and there was calculated the concentration of the test drug (ICP50) which brings about 50% inhibition to the maximum aggregation rate obtained by adding the aggregation inducing substance to PRP containing the solvent only.
(§2) The compound numbers in Table 1 correspond to those in the Examples described below.

[2] = tested on: blood platelet aggregation; assay: Blood platelet aggregation inhibition in vitro in rabbit PRP, collagen induced; format: cell-based, male, New Zealand strain house rabbit; conditions: Oryctolagus cuniculus, collagen final concentration 5 μg/ml, 37° C., 3 minutes preincubation, 50% inhibition of maximum aggregation rate
Protocol: as §1, §2

| SMILES | IC50 [1] [µM] | IC50 [2] [µM] |
| --- | --- | --- |
| CC(=O)/C=C1/C(=O)N(Cc2ccccc2Cl)C1c1ccccc1 (stereo not drawn) [Compound 54] | 11.2 | 15.5 |
| O=C(/C=C1/C(=O)N(c2ccc(Br)cc2)C1c1ccccc1)c1ccc(F)cc1 (stereo not drawn) [Compound 40] | 11.3 | 13.2 |
| Cc1ccccc1N1C(=O)/C(=C/C(=O)c2ccc([N+](=O)[O-])cc2)C1c1ccc(Br)cc1 (stereo not drawn) [Compound 86] | 6.2 | 5.3 |
| CCOC(=O)CC(=O)/C=C1/C(=O)N(c2ccccc2)C1c1ccccc1 (stereo not drawn) [Compound 15] | 21.5 | 16.6 |
| Cc1ccccc1N1C(=O)/C(=C/C(=O)c2ccc(F)cc2)C1c1ccccc1 (stereo not drawn) [Compound 17] | 7.7 | 5 |
| O=C(/C=C1/C(=O)N(c2ccccc2)C1c1ccc(O)cc1)c1ccc([N+](=O)[O-])cc1 (stereo not drawn) [Compound 75] | 3.8 | 5.4 |
| O=C(/C=C1/C(=O)N(c2cc(Cl)cc(Cl)c2)C1c1ccccc1)c1ccc([N+](=O)[O-])cc1 (stereo not drawn) [Compound 38] | 9 | 4.6 |
| O=C(/C=C1/C(=O)N(c2ccccc2F)C1c1ccccc1)c1ccc(F)cc1 (stereo not drawn) [Compound 33] | 11.9 | 12.5 |
| O=C(/C=C1/C(=O)N(Cc2ccccc2Cl)C1c1ccccc1)c1ccc([N+](=O)[O-])cc1 (stereo not drawn) [Compound 56] | 2.9 | 6.5 |
| COc1ccc(CN2C(=O)/C(=C/C(=O)c3ccc([N+](=O)[O-])cc3)C2c2ccccc2)cc1 (stereo not drawn) [Compound 92] | 7.3 | 6.5 |
| CC(=O)/C=C1/C(=O)N(c2ccccc2)C1c1ccccc1 (stereo not drawn) [Compound 1, (E)-3-(2-oxopropylidene)-1,4-diphenyl-2-azetidinone] | 33 | 14 |
| O=C(/C=C1/C(=O)N(Cc2ccccc2C(F)(F)F)C1c1ccccc1)c1ccc([N+](=O)[O-])cc1 (stereo not drawn) [Compound 95] | 15.4 | 2.5 |
| O=C(/C=C1/C(=O)N(Cc2cccc(Cl)c2)C1c1ccccc1)c1ccc([N+](=O)[O-])cc1 (stereo not drawn) [Compound 97] | 16 | 3.2 |
| Cc1ccccc1N1C(=O)/C(=C/C(=O)c2ccc([N+](=O)[O-])cc2)C1c1ccccc1 (stereo not drawn) [Compound 18] | 6.6 | 3.2 |
| O=C(/C=C1/C(=O)N(Cc2ccccc2)C1c1ccccc1)c1ccc(F)cc1 (stereo not drawn) [Compound 52] | 7.9 | – |
| COc1ccc(Cc2nccc3cc(OC)c(OC)cc23)cc1OC [papaverin, reference compound] | > 100 | > 100 |
| O=C(/C=C1/C(=O)N(c2ccccc2)C1c1ccc(F)cc1)c1ccc([N+](=O)[O-])cc1 (stereo not drawn) [Compound 77] | 4.3 | 2.9 |
| Cc1cc(Cl)ccc1N1C(=O)/C(=C/C(=O)c2ccc([N+](=O)[O-])cc2)C1c1ccccc1 (stereo not drawn) [Compound 24] | 6.4 | – |
| O=C(/C=C1/C(=O)N(c2cccc(C(F)(F)F)c2)C1c1ccccc1)c1ccccc1 (stereo not drawn) [Compound 43] | 14 | 7.7 |
| COc1ccccc1CN1C(=O)/C(=C/C(=O)c2ccc([N+](=O)[O-])cc2)C1c1ccccc1 (stereo not drawn) [Compound 94] | 8 | 6.9 |

| SMILES | IC50 [1] [µM] | IC50 [2] [µM] |
| --- | --- | --- |
| O=C(/C=C1/C(=O)N(c2ccccc2)C1c1ccccc1)c1ccc([N+](=O)[O-])cc1 (stereo not drawn) [Compound 12] | 5.6 | 4.7 |
| O=C(/C=C1/C(=O)N(c2ccccc2)C1c1ccc(F)cc1)c1ccc(F)cc1 (stereo not drawn) [Compound 76] | 14.3 | 10.5 |
| Cc1ccc(Cl)cc1N1C(=O)/C(=C/C(=O)c2ccccc2)C1c1ccccc1 (stereo not drawn) [Compound 26] | 16.5 | 9.5 |
| Cc1ccccc1N1C(=O)/C(=C/C(=O)c2ccc(F)cc2)C1c1ccc(F)cc1 (stereo not drawn) [Compound 78] | 6.2 | 8.3 |
| Cc1ccc(C(=O)/C=C2/C(=O)N(c3ccc(Cl)cc3C)C2c2ccccc2)cc1 (stereo not drawn) [Compound 21] | 30.9 | – |
| O=C(/C=C1/C(=O)N(c2ccccc2)C1c1ccccc1F)c1ccc([N+](=O)[O-])cc1 (stereo not drawn) [Compound 81] | 5.5 | 7 |
| Cc1ccc(CN2C(=O)/C(=C/C(=O)c3ccc([N+](=O)[O-])cc3)C2c2ccccc2)cc1 (stereo not drawn) [Compound 91] | 9.7 | 6.7 |
| O=C(/C=C1/C(=O)N(c2ccc(F)cc2)C1c1ccccc1)c1ccccc1 (stereo not drawn) [Compound 29] | 9 | 8.1 |
| O=C(/C=C1/C(=O)N(c2ccccc2)C1c1ccccc1)c1ccc(Cl)cc1 (stereo not drawn) [Compound 9] | 15 | 12 |
| O=C(/C=C1/C(=O)N(c2ccccc2)C1c1ccccc1)c1ccc(F)cc1 (stereo not drawn) [Compound 8] | 9.2 | 13.6 |
| O=C(/C=C1/C(=O)N(c2ccc(F)cc2)C1c1ccccc1)c1ccc([N+](=O)[O-])cc1 (stereo not drawn) [Compound 32] | 3.5 | 3.8 |
| O=C(/C=C1/C(=O)N(c2ccccc2)C1c1ccccc1)c1ccc(Br)cc1 (stereo not drawn) [Compound 10] | 36 | 26 |
| O=C(/C=C1/C(=O)N(c2cccc(C(F)(F)F)c2)C1c1ccccc1)c1ccc(F)cc1 (stereo not drawn) [Compound 44] | 10.3 | 7.3 |
| O=C(/C=C1/C(=O)N(Cc2ccccc2Cl)C1c1ccccc1)c1ccc(F)cc1 (stereo not drawn) [Compound 55] | 10.5 | 8.3 |
| Cc1ccc(C(=O)/C=C2/C(=O)N(c3ccccc3)C2c2ccccc2)cc1 (stereo not drawn) [Compound 5] | 24 | 23.5 |
| O=C(/C=C1/C(=O)N(Cc2ccc(Cl)cc2Cl)C1c1ccccc1)c1ccc([N+](=O)[O-])cc1 (stereo not drawn) [Compound 103] | 18.5 | 6.7 |
| CCC(=O)/C=C1/C(=O)N(c2ccccc2)C1c1ccccc1 (stereo not drawn) [Compound 2] | 28 | 32 |
| O=C(/C=C1/C(=O)N(Cc2ccc(Cl)cc2)C1c1ccccc1)c1ccc([N+](=O)[O-])cc1 (stereo not drawn) [Compound 98] | 11.2 | 8.8 |
| CC(=O)/C=C1/C(=O)N(c2cc(Cl)ccc2C)C1c1ccccc1 (stereo not drawn) [Compound 25] | 11.1 | 6.6 |
| Cc1ccccc1N1C(=O)/C(=C/C(=O)c2ccc([N+](=O)[O-])cc2)C1c1ccc(F)cc1 (stereo not drawn) [Compound 79] | 4.3 | 5.1 |

| SMILES | IC50 [1] [µM] | IC50 [2] [µM] |
| --- | --- | --- |
| O=C(/C=C1/C(=O)N(c2ccccc2)C1c1ccccc1)c1ccccc1 (stereo not drawn) [Compound 4] | 13 | 16 |
| O=C(/C=C1/C(=O)N(c2ccc(Br)cc2)C1c1ccccc1)c1ccc([N+](=O)[O-])cc1 (stereo not drawn) [Compound 41] | 4.2 | 5.1 |
| COc1ccc(C(=O)/C=C2/C(=O)N(c3ccc(Cl)cc3C)C2c2ccccc2)cc1 (stereo not drawn) [Compound 22] | 41.3 | – |
| O=C(/C=C1/C(=O)N(c2cc(Cl)cc(Cl)c2)C1c1ccccc1)c1ccc(F)cc1 (stereo not drawn) [Compound 37] | 21.2 | 17.8 |
| COc1ccc(C(=O)/C=C2/C(=O)N(c3ccccc3)C2c2ccccc2)c(OC)c1 (stereo not drawn) [Compound 7] | 12 | 23 |
| COc1ccc(C(=O)/C=C2/C(=O)N(c3ccccc3)C2c2ccccc2)cc1 (stereo not drawn) [Compound 6] | 24 | 18 |
| CCc1ccc(C2/C(=C\C(=O)c3ccc([N+](=O)[O-])cc3)C(=O)N2c2ccccc2C)cc1 (stereo not drawn) [Compound 68] | 13.6 | 7.5 |
| Cc1ccccc1N1C(=O)/C(=C/C(=O)c2ccc(F)cc2)C1c1ccc(Br)cc1 (stereo not drawn) [Compound 85] | 17.7 | 14.4 |
| O=C(/C=C1/C(=O)N(c2ccccc2)C1c1ccccc1)c1ccc(-c2ccccc2)cc1 (stereo not drawn) [Compound 11] | > 30 | 22 |
| O=C(/C=C1/C(=O)N(c2ccccc2)C1c1ccccc1F)c1ccc(F)cc1 (stereo not drawn) [Compound 80] | 7.4 | 10.9 |
| COc1ccc(C(=O)/C=C2/C(=O)N(c3ccc(Br)cc3)C2c2ccccc2)cc1 (stereo not drawn) [Compound 39] | > 30 | > 30 |
| COc1ccc(C(=O)/C=C2/C(=O)N(c3ccccc3C)C2c2ccccc2)cc1 (stereo not drawn) [Compound 16] | 12.5 | 4.1 |
| O=C(/C=C1/C(=O)N(c2cccc(C(F)(F)F)c2)C1c1ccccc1)c1ccc([N+](=O)[O-])cc1 (stereo not drawn) [Compound 45] | 4.4 | 5.2 |
| CCc1ccc(C2/C(=C\C(=O)c3ccc(F)cc3)C(=O)N2c2ccccc2C)cc1 (stereo not drawn) [Compound 67] | 27.7 | 11 |
| O=C(/C=C1/C(=O)N(c2ccccc2F)C1c1ccccc1)c1ccc([N+](=O)[O-])cc1 (stereo not drawn) [Compound 34] | 8.2 | 6.6 |
| O=C(/C=C1/C(=O)N(Cc2ccccc2F)C1c1ccccc1)c1ccc([N+](=O)[O-])cc1 (stereo not drawn) [Compound 96] | 3.9 | 3.7 |
| O=C(/C=C1/C(=O)N(Cc2ccccc2)C1c1ccccc1)c1ccc([N+](=O)[O-])cc1 (stereo not drawn) [Compound 53] | 4.9 | – |
| O=C(/C=C1/C(=O)N(Cc2ccc(F)cc2)C1c1ccccc1)c1ccc([N+](=O)[O-])cc1 (stereo not drawn) [Compound 93] | 18.3 | 8.7 |
